Assay results as given in patent US11000033B2, “Ketone or oxime compound, and herbicide” (NISSAN CHEMICAL CORPORATION, priority 2014, dated 2021).

What was measured:
Type in all cases: in vivo
[1] = tested on: Echinochloa oryzacola Vasing.; assay: Test Example 1: herbicidal activity, application before weed generation in submerged conditions (symbol A); conditions: application herbicide amount 320 g/ha
In short: (§1)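 In a flooded pot test with alluvial soil, the emulsion-formulated compound was diluted with water to a predetermined amount and applied to the floodwater immediately on the sowing day. Pots were held in a greenhouse at 25–30 °C for 3 weeks before each weed was rated.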

[2] = tested on: Leptochloa chinensis; assay: Test Example 3: herbicidal effect by foliage application, Wagner pot (symbol D); conditions: application herbicide amount 320 g/ha
In short: (§2)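 Rating at 3 weeks post-spray, by defined criteria. Treatment: emulsion diluted with water to a predetermined amount, applied evenly to foliage of 14-day-old plants raised in alluvial soil flooded 0.1–0.5 cm deep at 25–30 °C, rice co-sown.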

[3] = tested on: Stellaria media; assay: Test Example 5: herbicidal effect by foliage application, plastic box (symbol P); conditions: 320 g/ha, 3 weeks after application
In short: (§3)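 Leaf-applied emulsion, water-diluted to a preset herbicide dose, on two-week-old seedlings raised in a 25° C. to 30° C. greenhouse; injury rated at 3 weeks using earlier criteria.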

[4] = tested on: Echinochloa crus-galli var. crus-galli; assay: Test Example 4: herbicidal effect by soil treatment (symbol H); conditions: application herbicide amount 320 g/ha
In short: (§4)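 Seeds were sown in sterilized diluvial soil, covered with about 1.5 cm of soil, and the soil surface was sprayed with a water-diluted emulsion of the compound at a predetermined rate. Plants grew in a greenhouse at 25° C. to 30° C.; effects were scored visually 3 weeks after application.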

[5] = tested on: Digitaria ciliaris; assay: Test Example 5: herbicidal effect by foliage application, plastic box (symbol F); conditions: 320 g/ha, 3 weeks after application
In short: as §3

[6] = tested on: Scirpus juncoides; assay: Test Example 1: herbicidal activity, application before weed generation in submerged conditions (symbol B); conditions: application herbicide amount 320 g/ha
In short: as §1

[7] = tested on: Monochoria vaginalis; assay: Test Example 2: herbicidal activity, application during weed generation in submerged conditions (symbol C); conditions: Table 23; application herbicide amount 320 g/ha; grade 0-5 by criteria of Test Example 1
In short: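 Flooded-soil post-emergence test: emulsion of compound, water-diluted to target rate, applied to paddy water surface at 1–2 leaf stage of mixed-sown weeds (alluvial soil, 4 cm water, 25–30° C. greenhouse); visual rating 3 weeks after application.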

[8] = tested on: beet; assay: Test Example 4: effect on crop by soil treatment (symbol f); conditions: application herbicide amount 320 g/ha
In short: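 Plants grew in a 25° C. to 30° C. greenhouse after spot-sowing of seeds, including beet, rapeseed, wheat and rice, into sterilized diluvial soil under roughly 1.5 cm of cover soil.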

[9] = tested on: Veronica persica; assay: Test Example 4: herbicidal effect by soil treatment (symbol R); conditions: application herbicide amount 320 g/ha
In short: as §4

[10] = tested on: Setaria viridis; assay: Test Example 5: herbicidal effect by foliage application, plastic box (symbol G); conditions: 320 g/ha, 3 weeks after application
In short: as §3

[11] = tested on: Digitaria ciliaris; assay: Test Example 4: herbicidal effect by soil treatment (symbol F); conditions: application herbicide amount 320 g/ha
In short: as §4

[12] = tested on: Setaria viridis; assay: Test Example 4: herbicidal effect by soil treatment (symbol G); conditions: application herbicide amount 320 g/ha
In short: as §4

[13] = tested on: Avena fatua; assay: Test Example 5: herbicidal effect by foliage application, plastic box (symbol I); conditions: 320 g/ha, 3 weeks after application
In short: as §3

[14] = tested on: Cyperus difformis; assay: Test Example 3: herbicidal effect by foliage application, Wagner pot (symbol E); conditions: application herbicide amount 320 g/ha
In short: as §2

Row | SMILES | Herbicidal effect grade, A: Echinochloa oryzacola Vasing. [1] | herbicidal effect on D (Leptochloa chinensis), grade 0-5 [2] | P: Stellaria media, herbicidal effect (criteria of Test Example 1) [3] | Herbicidal effect grade, H: Echinochloa crus-galli var. crus-galli [4] | F: Digitaria ciliaris, herbicidal effect (criteria of Test Example 1) [5] | Herbicidal effect grade, B: Scirpus juncoides [6] | Herbicidal effect grade, C: Monochoria vaginalis [7] | Effect on crop grade, f: beet [8] | Herbicidal effect grade, R: Veronica persica [9] | G: Setaria viridis, herbicidal effect (criteria of Test Example 1) [10] | Herbicidal effect grade, F: Digitaria ciliaris [11] | Herbicidal effect grade, G: Setaria viridis [12] | I: Avena fatua, herbicidal effect (criteria of Test Example 1) [13] | herbicidal effect on E, grade 0-5 [14] | E herbicidal effect grade ([14]; Table 24) | D (Leptochloa chinensis) herbicidal effect grade ([2]; Table 24)
1 | CON=C(C)CC1CC(O)=C(c2c(C)cc(-c3cc(F)c(F)c(F)c3)cc2C)C1=O (centres unmarked) [6-104] | 5 (Herbicidal ratio of 90% or more (almost completely withered)) | 5 (Herbicidal ratio of 90% or more (almost completely withered)) | 4 (Herbicidal ratio of 70% or higher and lower than 90%) | 5 (Herbicidal ratio of 90% or more (almost completely withered)) | 5 (Herbicidal ratio of 90% or more (almost completely withered)) | 5 (Herbicidal ratio of 90% or more (almost completely withered)) | 5 (Herbicidal ratio of 90% or more (almost completely withered)) | 4 (Herbicidal ratio of 70% or higher and lower than 90%) | 4 (Herbicidal ratio of 70% or higher and lower than 90%) | 5 (Herbicidal ratio of 90% or more (almost completely withered)) | 5 (Herbicidal ratio of 90% or more (almost completely withered)) | 5 (Herbicidal ratio of 90% or more (almost completely withered)) | 5 (Herbicidal ratio of 90% or more (almost completely withered)) | – | – | –
2 | CON=C(C)CC1CC(O)=C(c2c(C)cc(-c3ccsc3)cc2C)C1=O (centres unmarked) [6-106] | 5 (Herbicidal ratio of 90% or more (almost completely withered)) | 5 (Herbicidal ratio of 90% or more (almost completely withered)) | 3 (Herbicidal ratio of 40% or higher and lower than 70%) | 5 (Herbicidal ratio of 90% or more (almost completely withered)) | 5 (Herbicidal ratio of 90% or more (almost completely withered)) | 5 (Herbicidal ratio of 90% or more (almost completely withered)) | 4 (Herbicidal ratio of 70% or higher and lower than 90%) | 0 (Herbicidal ratio of 5% or lower (almost no effect)) | 0 (Herbicidal ratio of 5% or lower (almost no effect)) | 5 (Herbicidal ratio of 90% or more (almost completely withered)) | 5 (Herbicidal ratio of 90% or more (almost completely withered)) | – | 3 (Herbicidal ratio of 40% or higher and lower than 70%) | – | – | –
3 | CON=C(C)CC1CC(O)=C(c2c(F)cc(-c3ccccc3)cc2OC)C1=O (centres unmarked) [6-107] | 5 (Herbicidal ratio of 90% or more (almost completely withered)) | 5 (Herbicidal ratio of 90% or more (almost completely withered)) | 2 (Herbicidal ratio of 20% or higher and lower than 40%) | 5 (Herbicidal ratio of 90% or more (almost completely withered)) | 5 (Herbicidal ratio of 90% or more (almost completely withered)) | 5 (Herbicidal ratio of 90% or more (almost completely withered)) | 5 (Herbicidal ratio of 90% or more (almost completely withered)) | 1 (Herbicidal ratio of 5% or higher and lower than 20%) | 4 (Herbicidal ratio of 70% or higher and lower than 90%) | 5 (Herbicidal ratio of 90% or more (almost completely withered)) | 5 (Herbicidal ratio of 90% or more (almost completely withered)) | 5 (Herbicidal ratio of 90% or more (almost completely withered)) | 5 (Herbicidal ratio of 90% or more (almost completely withered)) | – | – | –
4 | CON=C(C)CC1CC(OC(=O)N(C)C)=C(c2c(C)cc(C)cc2OC)C1=O (centres unmarked) [6-109] | 5 (Herbicidal ratio of 90% or more (almost completely withered)) | 4 (Herbicidal ratio of 70% or higher and lower than 90%) | 0 (Herbicidal ratio of 5% or lower (almost no effect)) | 5 (Herbicidal ratio of 90% or more (almost completely withered)) | 5 (Herbicidal ratio of 90% or more (almost completely withered)) | 3 (Herbicidal ratio of 40% or higher and lower than 70%) | 2 (Herbicidal ratio of 20% or higher and lower than 40%) | 0 (Herbicidal ratio of 5% or lower (almost no effect)) | 0 (Herbicidal ratio of 5% or lower (almost no effect)) | 5 (Herbicidal ratio of 90% or more (almost completely withered)) | 5 (Herbicidal ratio of 90% or more (almost completely withered)) | – | 5 (Herbicidal ratio of 90% or more (almost completely withered)) | – | – | –
5 | CC(=O)CC1CC(O)=C(c2c(C)cc(Oc3ccc(C(F)(F)F)cn3)cc2C)C1=O (centres unmarked) [7-019] | 1 (Herbicidal ratio of 5% or higher and lower than 20%) | 4 (Herbicidal ratio of 70% or higher and lower than 90%) | 0 (Herbicidal ratio of 5% or lower (almost no effect)) | 0 (Herbicidal ratio of 5% or lower (almost no effect)) | 3 (Herbicidal ratio of 40% or higher and lower than 70%) | 0 (Herbicidal ratio of 5% or lower (almost no effect)) | – | 0 (Herbicidal ratio of 5% or lower (almost no effect)) | 0 (Herbicidal ratio of 5% or lower (almost no effect)) | 3 (Herbicidal ratio of 40% or higher and lower than 70%) | 3 (Herbicidal ratio of 40% or higher and lower than 70%) | 2 (Herbicidal ratio of 20% or higher and lower than 40%) | 0 (Herbicidal ratio of 5% or lower (almost no effect)) | 2 (Herbicidal ratio of 20% or higher and lower than 40%) | – | –
6 | COc1cc(Br)cc(F)c1C1=C(O)CC(CC(C)=O)C1=O (centres unmarked) [7-029] | 2 (Herbicidal ratio of 20% or higher and lower than 40%) | – | 0 (Herbicidal ratio of 5% or lower (almost no effect)) | 2 (Herbicidal ratio of 20% or higher and lower than 40%) | – | 0 (Herbicidal ratio of 5% or lower (almost no effect)) | – | 0 (Herbicidal ratio of 5% or lower (almost no effect)) | 0 (Herbicidal ratio of 5% or lower (almost no effect)) | – | 0 (Herbicidal ratio of 5% or lower (almost no effect)) | 4 (Herbicidal ratio of 70% or higher and lower than 90%) | 3 (Herbicidal ratio of 40% or higher and lower than 70%) | – | 0 (Herbicidal ratio of 5% or lower (almost no effect)) | 4 (Herbicidal ratio of 70% or higher and lower than 90%)
